Measured values taken from the NIST ThermoML archive (doi:10.1021/je5005752).

Assay: xn = mol fraction of the nth substance listed
Details: 101 kPa, Liquid; for viscosity: Falling or rolling sphere viscometry; for mass density: Vibrating tube method

CCCC(=O)OCC [ethyl butanoate] + CCCCO
Details	mass density, 308.15 K [kg/m3]	mass density, 313.15 K [kg/m3]	mass density, 318.15 K [kg/m3]	mass density, 323.15 K [kg/m3]	viscosity, 308.15 K [mPa·s]	viscosity, 313.15 K [mPa·s]	viscosity, 318.15 K [mPa·s]	viscosity, 323.15 K [mPa·s]
x1 = 0.1	806.58	802.44	798.28	794.08	1.479	1.342	1.204	1.109
x1 = 0.2001	814.33	809.99	805.63	801.22	1.174	1.078	0.9786	0.9039
x1 = 0.2999	821.63	817.12	812.57	807.99	0.9797	0.9078	0.8314	0.7743
x1 = 0.3998	828.5	823.82	819.12	814.38	0.852	0.7938	0.7327	0.685
x1 = 0.5	835.01	830.18	825.33	820.45	0.7542	0.7053	0.6556	0.6163
x1 = 0.5999	841.14	836.19	831.21	826.2	0.6973	0.6517	0.6088	0.5736
x1 = 0.6998	846.94	841.87	836.78	831.66	0.6428	0.6037	0.5678	0.5372
x1 = 0.7999	852.47	847.3	842.11	836.9	0.6063	0.57	0.5382	0.5114
x1 = 0.9001	857.82	852.56	847.29	842	0.583	0.5487	0.5197	0.4942
x1 = 1	863.02	857.7	852.36	847	0.5736	0.5425	0.5132	0.487
